Where two headings read alike, the source gives them in different places.

Results on 4 compounds are retold here after patent US8598344B2, “CDKI pathway inhibitors and uses thereof” (Senex Biotechnology, priority 2009, dated 2013).

Experiment [1] has as its system induction of transcription by p21 (CDKI pathway, CMV promoter-GFP) in HT1080 fibrosarcoma cells. Briefly: Cellular assay for CDKI pathway inhibition: CMV-GFP induction by IPTG-inducible p21 in HT1080 reporter cells. The format is cell-based, human. As to the method: Briefly, the reporter cell line described in the above-referenced application, which carries IPTG (isopropyl-β-thio-galactoside)-inducible p21 gene together with a p21-inducible promoter driving the expression of Green Fluorescent Protein (GFP) was plated in 96-well plates, at 2000 cells per well for the no-IPTG arm of the assay and at 5000 cells per well for the IPTG arm of the assay. To induce the maximal levels of p21, IPTG was added to 50 μM concentration. Serial 2-fold dilutions of the tested compounds were added in quadruplicates to wells with and without IPTG, ˜10 min after IPTG addition.
This assay is based on the induction of green fluorescent protein (GFP) expression from the cytomegalovirus (CMV) promoter in human HT1080 fibrosarcoma cells that express CDKI p21 from an isopropyl-(3-thio-galactoside (IPTG)-inducible promoter. The compound activity as a CDKI pathway inhibitor is measured by its ability to prevent the stimulation of the CMV promoter upon the addition of p21-inducing IPTG. CMV promoter activity is measured by the ratio of GFP fluorescence to the relative cell number, as determined by staining cellular DNA with Hoechst 33342. This assay was conducted in two modes. […]

The next experiment concerns the target T1, ROS1 (Homo sapiens, UniProt P08922).
T1 construct: purchased KinomeScan, a division of Ambit Biosciences
Particulars: 10 μM; data from Cee et al. (2009); cited from earlier work.

In experiment [2] the test system is several other types of human cells. Particulars: Aoki et al., 2007; read-out: antiproliferative activity against several other types of human cells; cited from earlier work.
The target of the next experiment is T2, PKACb (Homo sapiens, UniProt P22694).
T2 construct: purchased KinomeScan, a division of Ambit Biosciences
Particulars: 10 μM; data from Cee et al. (2009); cited from earlier work.

In another experiment the target is T3, PRKG2 (Homo sapiens, UniProt Q13237).
T3 construct: purchased KinomeScan, a division of Ambit Biosciences
T3 sequence (Q13237 whole entry): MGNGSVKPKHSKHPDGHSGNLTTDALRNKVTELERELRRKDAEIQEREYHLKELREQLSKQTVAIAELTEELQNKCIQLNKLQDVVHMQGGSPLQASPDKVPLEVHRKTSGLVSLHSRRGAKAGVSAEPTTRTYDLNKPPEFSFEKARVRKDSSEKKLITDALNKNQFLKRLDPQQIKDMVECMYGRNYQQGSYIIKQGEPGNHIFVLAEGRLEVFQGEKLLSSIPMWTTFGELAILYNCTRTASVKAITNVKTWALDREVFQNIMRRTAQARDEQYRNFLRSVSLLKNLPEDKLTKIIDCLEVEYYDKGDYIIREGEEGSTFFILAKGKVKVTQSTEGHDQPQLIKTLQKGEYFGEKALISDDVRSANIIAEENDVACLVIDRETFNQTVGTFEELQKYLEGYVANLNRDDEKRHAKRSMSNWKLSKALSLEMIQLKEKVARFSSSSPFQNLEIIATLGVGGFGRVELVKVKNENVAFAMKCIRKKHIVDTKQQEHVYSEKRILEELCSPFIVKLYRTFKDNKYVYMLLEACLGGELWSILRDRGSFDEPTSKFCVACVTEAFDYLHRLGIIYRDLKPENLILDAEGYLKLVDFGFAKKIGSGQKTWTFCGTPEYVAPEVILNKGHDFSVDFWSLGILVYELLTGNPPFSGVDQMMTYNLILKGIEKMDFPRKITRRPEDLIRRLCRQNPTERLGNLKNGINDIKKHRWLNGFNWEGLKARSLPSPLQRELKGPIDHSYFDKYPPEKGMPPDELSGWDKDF
Conditions: 10 μM; data from Cee et al. (2009); cited from earlier work.

A further experiment addresses T4, CLK4 (Homo sapiens, UniProt Q9HAZ1).
T4 construct: purchased KinomeScan, a division of Ambit Biosciences
Particulars: 10 μM; data from Cee et al. (2009); cited from earlier work.

In another experiment the target is T5, CIT (Homo sapiens, UniProt O14578).
T5 construct: purchased KinomeScan, a division of Ambit Biosciences
Conditions: 10 μM; data from Cee et al. (2009); cited from earlier work.

The target in a further experiment is T6, MET (Homo sapiens, UniProt P08581).
T6 construct: purchased KinomeScan, a division of Ambit Biosciences
Particulars: 10 μM; data from Cee et al. (2009); cited from earlier work.

For another experiment, the target named is T7, PIM2 (Homo sapiens, UniProt Q9P1W9).
T7 construct: purchased KinomeScan, a division of Ambit Biosciences
Conditions: 10 μM; data from Cee et al. (2009); cited from earlier work.

Experiment [3] concerns the target T8, CDK19 (Homo sapiens, UniProt Q9BWU1).
T8 construct: purchased KinomeScan, a division of Ambit Biosciences
Particulars: cited from earlier work.

The target in a further experiment is T9, ROCK1 (Homo sapiens, UniProt Q13464).
T9 construct: purchased KinomeScan, a division of Ambit Biosciences
T9 sequence (Q13464 whole entry): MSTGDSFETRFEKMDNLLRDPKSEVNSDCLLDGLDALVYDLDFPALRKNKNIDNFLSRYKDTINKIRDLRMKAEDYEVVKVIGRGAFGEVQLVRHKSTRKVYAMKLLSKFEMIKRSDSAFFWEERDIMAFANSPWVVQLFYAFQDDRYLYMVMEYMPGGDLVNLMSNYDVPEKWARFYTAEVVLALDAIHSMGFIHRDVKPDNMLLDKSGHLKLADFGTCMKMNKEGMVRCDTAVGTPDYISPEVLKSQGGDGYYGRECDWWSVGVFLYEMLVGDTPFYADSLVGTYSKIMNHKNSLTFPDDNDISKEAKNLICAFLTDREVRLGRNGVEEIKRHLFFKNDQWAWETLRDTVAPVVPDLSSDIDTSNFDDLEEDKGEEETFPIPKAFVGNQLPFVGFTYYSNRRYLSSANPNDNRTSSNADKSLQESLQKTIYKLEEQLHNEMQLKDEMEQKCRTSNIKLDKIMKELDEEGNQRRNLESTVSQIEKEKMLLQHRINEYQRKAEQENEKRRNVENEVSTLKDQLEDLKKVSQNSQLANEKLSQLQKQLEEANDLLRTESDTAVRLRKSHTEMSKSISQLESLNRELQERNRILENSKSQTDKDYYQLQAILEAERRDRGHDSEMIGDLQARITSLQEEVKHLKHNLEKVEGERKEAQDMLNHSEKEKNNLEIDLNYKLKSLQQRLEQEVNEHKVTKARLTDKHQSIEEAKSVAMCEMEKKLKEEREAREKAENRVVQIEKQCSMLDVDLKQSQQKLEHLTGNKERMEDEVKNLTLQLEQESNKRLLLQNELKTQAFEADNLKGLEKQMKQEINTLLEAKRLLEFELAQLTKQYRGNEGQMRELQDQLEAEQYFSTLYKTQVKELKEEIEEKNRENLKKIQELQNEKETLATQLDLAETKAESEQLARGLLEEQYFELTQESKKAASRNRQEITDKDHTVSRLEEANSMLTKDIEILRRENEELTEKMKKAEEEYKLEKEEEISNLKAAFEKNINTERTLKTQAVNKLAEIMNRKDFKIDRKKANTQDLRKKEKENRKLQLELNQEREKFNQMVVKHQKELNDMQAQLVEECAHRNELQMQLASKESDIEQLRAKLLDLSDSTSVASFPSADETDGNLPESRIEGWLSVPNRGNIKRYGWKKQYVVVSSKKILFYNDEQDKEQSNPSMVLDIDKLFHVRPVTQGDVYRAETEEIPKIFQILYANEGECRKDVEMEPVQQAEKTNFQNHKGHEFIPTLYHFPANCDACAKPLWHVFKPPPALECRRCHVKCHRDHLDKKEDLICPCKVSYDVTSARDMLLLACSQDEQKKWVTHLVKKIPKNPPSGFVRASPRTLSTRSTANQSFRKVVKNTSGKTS
Conditions: cited from earlier work.

A further experiment has as its target T10, PKACa (Homo sapiens, UniProt P17612).
T10 construct: purchased KinomeScan, a division of Ambit Biosciences
Conditions: 10 μM; data from Cee et al. (2009); cited from earlier work.

A further experiment has as its target T11, JNK1 (Homo sapiens, UniProt P45983).
T11 construct: purchased KinomeScan, a division of Ambit Biosciences
Particulars: 10 μM; data from Cee et al. (2009); cited from earlier work.

The target in another experiment is T12, LTK (Homo sapiens, UniProt P29376).
T12 construct: purchased KinomeScan, a division of Ambit Biosciences
Conditions: 10 μM; data from Cee et al. (2009); cited from earlier work.

The next experiment has as its target T13, RIOK2 (Homo sapiens, UniProt Q9BVS4).
T13 construct: purchased KinomeScan, a division of Ambit Biosciences
Particulars: 10 μM; data from Cee et al. (2009); cited from earlier work.

The target in another experiment is T14, ALK (Homo sapiens, UniProt Q9UM73).
T14 construct: purchased KinomeScan, a division of Ambit Biosciences
Particulars: 10 μM; data from Cee et al. (2009); cited from earlier work.

Experiment [4] relates to human umbilical vein endothelial cells (HUVECs). Particulars: Aoki et al., 2007; read-out: IC50, proliferation of HUVECs; cited from earlier work.
The target in a further experiment is T15, ROCK2 (Homo sapiens, UniProt O75116).
T15 construct: purchased KinomeScan, a division of Ambit Biosciences
T15 sequence (O75116 whole entry): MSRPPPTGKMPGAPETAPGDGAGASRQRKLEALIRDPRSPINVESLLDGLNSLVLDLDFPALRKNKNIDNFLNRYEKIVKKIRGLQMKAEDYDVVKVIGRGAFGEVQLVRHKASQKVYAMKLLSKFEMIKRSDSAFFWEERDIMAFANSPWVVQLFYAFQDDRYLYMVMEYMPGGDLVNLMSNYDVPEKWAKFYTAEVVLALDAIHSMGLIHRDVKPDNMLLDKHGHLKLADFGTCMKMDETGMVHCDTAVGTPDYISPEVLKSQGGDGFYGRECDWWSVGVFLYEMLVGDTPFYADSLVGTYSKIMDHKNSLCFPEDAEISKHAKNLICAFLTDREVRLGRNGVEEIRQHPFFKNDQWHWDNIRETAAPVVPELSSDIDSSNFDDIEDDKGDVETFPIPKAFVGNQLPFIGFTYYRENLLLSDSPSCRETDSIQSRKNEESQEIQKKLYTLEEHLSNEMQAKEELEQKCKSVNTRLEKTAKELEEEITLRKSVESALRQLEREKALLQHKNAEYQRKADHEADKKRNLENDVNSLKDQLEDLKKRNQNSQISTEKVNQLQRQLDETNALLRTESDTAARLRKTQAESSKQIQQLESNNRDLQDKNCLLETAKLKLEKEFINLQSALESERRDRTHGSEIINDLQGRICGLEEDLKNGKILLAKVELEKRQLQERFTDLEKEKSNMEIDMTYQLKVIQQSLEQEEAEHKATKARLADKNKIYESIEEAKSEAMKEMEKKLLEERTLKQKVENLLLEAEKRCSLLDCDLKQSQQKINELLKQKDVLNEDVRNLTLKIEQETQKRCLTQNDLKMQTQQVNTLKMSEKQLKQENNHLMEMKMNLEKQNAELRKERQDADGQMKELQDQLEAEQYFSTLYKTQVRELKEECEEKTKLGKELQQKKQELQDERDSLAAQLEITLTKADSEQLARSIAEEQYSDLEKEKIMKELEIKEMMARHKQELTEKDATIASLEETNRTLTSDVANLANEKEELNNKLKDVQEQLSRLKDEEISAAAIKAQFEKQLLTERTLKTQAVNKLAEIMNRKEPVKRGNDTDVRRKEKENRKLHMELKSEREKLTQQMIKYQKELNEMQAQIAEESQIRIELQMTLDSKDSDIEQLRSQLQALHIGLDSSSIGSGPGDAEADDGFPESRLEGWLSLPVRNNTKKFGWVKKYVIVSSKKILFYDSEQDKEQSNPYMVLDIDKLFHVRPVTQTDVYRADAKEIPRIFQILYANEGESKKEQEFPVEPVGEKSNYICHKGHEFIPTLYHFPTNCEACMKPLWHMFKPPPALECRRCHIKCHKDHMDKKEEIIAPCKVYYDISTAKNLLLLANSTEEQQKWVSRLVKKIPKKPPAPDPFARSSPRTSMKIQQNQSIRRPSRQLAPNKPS
Conditions: cited from earlier work.

The next experiment has as its target T16, CDK3 (Homo sapiens, UniProt Q00526).
T16 construct: purchased KinaseProfiler of Millipore Corporation
Briefly: KinaseProfiler (Millipore) kinase inhibition. The format is biochemical. Conditions: 10 μM. The source says: (§1) This similarity led us to test SNX14 for the ability to inhibit 285 kinases, using the services of KinaseProfiler of Millipore Corporation (285 kinases). […] The KINOMEscan assay has been described in detail in Fabian et al., Nat. Biotechnol. 23: 329 (2005) and Karaman et al., Nat. Biotechnol. 26: 127 (2008).
(§2) The KinomeScan assay is based on a competition binding assay that quantitatively measures the ability of a compound to compete with an immobilized, ATP site directed ligand. The assay is performed by combining three components: DNA-tagged kinase; immobilized ligand; and a test compound. The ability of the test compound to compete with the immobilized ligand is measured via quantitative PCR of the DNA tag. […] The CDKs tested by Millipore for inhibition with SNX14 included CDK1, CDK2, CDK3, CDK5, CDK7 and CDK9; none of these were inhibited to less than 49 percent of control (POC) activity. The CDKs tested by KinomeScan for the effect of Compound 1 included CDK2, CDK3, CDK4, CDK5, CDK7, CDK8, CDK9 and CDK19; aside from CDK8 and CDK19, the strongest inhibited CDK was CDK7 (33% POC binding). To determine the inhibition of which kinases correlates with the biological activity of SNX2-class compounds, we tested eight additional compounds of the SNX2 family, which gave different IC50 values in the cellular assays, for the ability to affect 24 kinases that were most susceptible to compound 1, through the services of KinomeScan. […] We have also determined the binding constant (Kd) for SNX14, compound 1, compound 20, compound 26, compound 43 and compound 14 in kinase assays for CDK8 and CDK19 (Table 1).

The target of the next experiment is T17, CDK5 (Homo sapiens, UniProt Q00535).
T17 construct: purchased KinaseProfiler of Millipore Corporation
In words: KinaseProfiler (Millipore) kinase inhibition. The format is biochemical. Particulars: 10 μM.
Source text: as §1, §2

A further experiment deals with T18, CDK2 (Homo sapiens, UniProt P24941).
T18 construct: purchased KinaseProfiler of Millipore Corporation
Briefly: KinaseProfiler (Millipore) kinase inhibition. The format is biochemical. Particulars: 10 μM.
Source text: as §1, §2

The target in another experiment is T19, CDK9 (Homo sapiens, UniProt P50750).
T19 construct: purchased KinaseProfiler of Millipore Corporation
In words: KinaseProfiler (Millipore) kinase inhibition. Particulars: 10 μM. The format is biochemical.
Source text: as §1, §2

In a further experiment the target is T20, CDK1 (Homo sapiens, UniProt P06493).
T20 construct: purchased KinaseProfiler of Millipore Corporation
Briefly: KinaseProfiler (Millipore) kinase inhibition. The format is biochemical. Particulars: 10 μM.
Source text: as §1, §2

The next experiment concerns the target T21, CDK8 (Homo sapiens, UniProt P49336).
T21 construct: purchased KinomeScan, a division of Ambit Biosciences
Briefly: KinomeScan competition binding assay. Conditions: read-out: CDK8 inhibition (Kd).
Source text: as §1, §2

For experiment [5], the target named is T8, CDK19. In words: KinomeScan competition binding assay. Conditions: read-out: CDK19 inhibition (Kd).
Source text: as §1, §2

A further experiment has as its target CDK7 (Homo sapiens, UniProt P50613). In words: KinaseProfiler (Millipore) kinase inhibition. The format is biochemical. Also noted: purchased KinaseProfiler of Millipore Corporation. Particulars: 10 μM.
Source text: as §1
as §2, with “binding).” for “binding). To determine the inhibition of which kinases correlates with the biological activity of SNX2-class compounds, we tested eight additional compounds of the SNX2 family, which gave different IC50 values in the cellular assays, for the ability to affect 24 kinases that were most susceptible to compound 1, through the services of KinomeScan.”

The mark [6] stands for this setting: 10 μM, data from Cee et al. (2009).

T8 sequence (Q9BWU1 whole entry): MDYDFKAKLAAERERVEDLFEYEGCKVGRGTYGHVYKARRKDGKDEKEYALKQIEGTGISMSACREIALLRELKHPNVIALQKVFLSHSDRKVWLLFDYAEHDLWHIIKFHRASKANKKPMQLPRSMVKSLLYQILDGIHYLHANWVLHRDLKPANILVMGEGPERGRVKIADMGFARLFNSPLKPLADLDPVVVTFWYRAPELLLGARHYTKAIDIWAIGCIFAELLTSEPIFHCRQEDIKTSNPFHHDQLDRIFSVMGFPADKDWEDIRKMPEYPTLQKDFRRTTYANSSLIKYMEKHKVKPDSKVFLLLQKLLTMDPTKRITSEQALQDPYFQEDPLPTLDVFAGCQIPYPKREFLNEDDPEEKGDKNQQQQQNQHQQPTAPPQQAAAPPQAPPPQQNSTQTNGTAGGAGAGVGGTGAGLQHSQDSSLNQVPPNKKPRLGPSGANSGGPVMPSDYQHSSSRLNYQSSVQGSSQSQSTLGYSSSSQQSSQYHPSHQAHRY
Chain of CDK7 (P50613 whole entry): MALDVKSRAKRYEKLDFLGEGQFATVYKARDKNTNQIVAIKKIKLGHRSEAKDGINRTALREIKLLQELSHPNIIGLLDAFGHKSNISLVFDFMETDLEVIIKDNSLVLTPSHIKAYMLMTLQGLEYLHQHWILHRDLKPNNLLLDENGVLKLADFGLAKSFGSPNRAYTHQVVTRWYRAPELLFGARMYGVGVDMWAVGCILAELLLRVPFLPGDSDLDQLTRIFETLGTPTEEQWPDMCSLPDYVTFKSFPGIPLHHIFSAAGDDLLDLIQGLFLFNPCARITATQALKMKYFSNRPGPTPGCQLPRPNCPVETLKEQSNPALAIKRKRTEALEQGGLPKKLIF
Chain of CDK7 (P51946 whole entry partner): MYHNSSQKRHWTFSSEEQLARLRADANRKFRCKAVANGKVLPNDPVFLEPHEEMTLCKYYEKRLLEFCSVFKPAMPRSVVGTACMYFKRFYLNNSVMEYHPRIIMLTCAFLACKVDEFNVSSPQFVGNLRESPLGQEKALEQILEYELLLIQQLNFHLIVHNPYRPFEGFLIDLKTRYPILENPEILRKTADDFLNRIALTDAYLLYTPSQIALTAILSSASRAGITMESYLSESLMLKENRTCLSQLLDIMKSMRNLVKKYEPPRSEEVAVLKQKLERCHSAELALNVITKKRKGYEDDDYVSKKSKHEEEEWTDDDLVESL
Chain of CDK7 (P51948 whole entry partner): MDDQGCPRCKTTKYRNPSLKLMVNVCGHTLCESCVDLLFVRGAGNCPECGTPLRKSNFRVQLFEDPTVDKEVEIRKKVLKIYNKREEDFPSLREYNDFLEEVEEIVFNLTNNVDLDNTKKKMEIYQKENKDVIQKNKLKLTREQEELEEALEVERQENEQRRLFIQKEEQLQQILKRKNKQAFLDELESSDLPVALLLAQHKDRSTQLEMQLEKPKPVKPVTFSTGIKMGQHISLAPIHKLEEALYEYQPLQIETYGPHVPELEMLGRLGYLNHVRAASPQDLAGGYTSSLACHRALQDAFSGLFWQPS

On to `Ic1ccc2ncnc(NCCc3ccccc3)c2c1` [compound 3], for which, in experiment [1] (read-out: IC50, p21 induced by 8 μM IPTG, 8 μM IPTG, 72 hours), the IC50 was 1850 nM.
One may read the Kd as a measure of binding affinity in units of concentration. Take cortistatin A: the “POC, ROS1” value at ROS1 is listed as 26 POC. Further, the results for the IC50 in [2] and in experiment [4] were 6000 to 7000 nM and 1.8 nM, respectively. The “POC, PKACb” value on PKACb is on record as 13 POC. Moreover, on PRKG2, the “POC, PRKG2” value was 21 POC. The “POC, CLK4” value on CLK4 was 26 POC. Besides, the “POC, CIT” value at CIT is 28 POC. Further, at MET, the “POC, MET” value is recorded as 18 POC. Also, the “POC, PIM2” value at PIM2 is given as 4.4 POC. For the same compound, the “POC, CDK19” value on CDK19 [3] (setting [6]) is on record as 0.1 POC. The Kd at CDK19 [3] (Cee et al. (2009)) is 10 nM; at ROCK1 (Cee et al. (2009), read-out: Kd ROCK I), 250 nM; on ROCK2 (Cee et al. (2009), read-out: Kd ROCK II), 220 nM. Further, on ROCK1 (setting [6]), the “POC, ROCK1” value is 21 POC. Further, at PKACa, the “POC, PKACa” value is on record as 8.7 POC. On JNK1, the “POC, JNK1” value is recorded as 29 POC. Further, the “POC, LTK” value at LTK is listed as 2.9 POC. On RIOK2, the “POC, RIOK2” value is reported as 21 POC. Besides, the “POC, ALK” value at ALK is 4.4 POC. In addition, at ROCK2 (setting [6]), the “POC, ROCK2 (ROCK II)” value is 0 POC.
Turning to `CC(C)Nc1ncnc2ccc(I)cc12` [SNX14], the “percent of control (POC) activity, CDK3” value at CDK3 is listed as ≥ 49% of control (POC). Further, the “percent of control (POC) activity, CDK5” value at CDK5 is given as ≥ 49% of control (POC). Besides, the “percent of control (POC) activity, CDK2” value on CDK2 is ≥ 49% of control (POC). Further, on CDK9, the “percent of control (POC) activity, CDK9” value is listed as ≥ 49% of control (POC). Further, the “percent of control (POC) activity, CDK1” value at CDK1 was ≥ 49% of control (POC). Also, the Kd is 10000 nM at CDK8 and 3800 nM at CDK19 [5]. The IC50 in [1] (Table 1, IC50 calculated on the basis of the maximal inhibition produced by the highest doses, IPTG mode (50 μM or 2 μM) not stated, read-out: Cell-based assay (IC50)) was 6430 nM. In addition, the “percent of control (POC) activity, CDK7” value on CDK7 is listed as ≥ 49% of control (POC).
`COc1cc2ncnc(Nc3ccc(F)c(Cl)c3)c2cc1OCCCN1CCOCC1` [gefitinib, reference compound]: the CDKI pathway inhibition entry in experiment [1] was “inactive”.
